Experiment: mn = molality of the nth substance listed, in mol/kg
Conditions: Liquid, Vibrating tube method

[Br-].[Li+] [lithium bromide] + CCO
Conditions | mass density [kg/m3]
293.15 K, 1024 kPa, m1 = 2.833 | 956.08
293.15 K, 1034 kPa, m1 = 0.9499 | 850.27
293.15 K, 5015 kPa, m1 = 3.368 | 986.33
293.15 K, 5029 kPa, m1 = 0.9499 | 853.2
293.15 K, 5201 kPa, m1 = 2.833 | 959.11
293.15 K, 10003 kPa, m1 = 0.2335 | 812.89
293.15 K, 10032 kPa, m1 = 2.833 | 962.5
293.15 K, 10041 kPa, m1 = 0.9499 | 856.81
293.15 K, 10061 kPa, m1 = 0.5972 | 835.46
293.15 K, 19924 kPa, m1 = 0.9499 | 863.69
293.15 K, 20003 kPa, m1 = 0.2335 | 820.16
293.15 K, 20038 kPa, m1 = 3.368 | 996.51
293.15 K, 29895 kPa, m1 = 0.9499 | 870.31
293.15 K, 29978 kPa, m1 = 3.368 | 1002.69
293.15 K, 29993 kPa, m1 = 0.5972 | 849.31
293.15 K, 39912 kPa, m1 = 0.5972 | 855.69
293.15 K, 39956 kPa, m1 = 0.2335 | 833.59
293.15 K, 39985 kPa, m1 = 2.833 | 981.35
293.15 K, 40003 kPa, m1 = 0.9499 | 876.7
293.15 K, 49936 kPa, m1 = 3.368 | 1014.01
293.15 K, 49993 kPa, m1 = 0.5972 | 861.83
293.15 K, 50002 kPa, m1 = 0.9499 | 882.7
293.15 K, 59924 kPa, m1 = 0.2335 | 845.57
293.15 K, 60001 kPa, m1 = 2.833 | 992.24
293.15 K, 60032 kPa, m1 = 0.9499 | 888.39
293.15 K, 70032 kPa, m1 = 2.833 | 997.31
293.15 K, 70102 kPa, m1 = 0.9499 | 893.78
293.15 K, 79914 kPa, m1 = 1.462 | 928.13
293.15 K, 79926 kPa, m1 = 0.2335 | 856.13
293.15 K, 79956 kPa, m1 = 0.9499 | 898.74
293.15 K, 79956 kPa, m1 = 2.833 | 1002.13
293.15 K, 80104 kPa, m1 = 3.368 | 1029.17
293.15 K, 89245 kPa, m1 = 0.9499 | 903.13
293.15 K, 89926 kPa, m1 = 0.5972 | 882.72
293.15 K, 89954 kPa, m1 = 0.2335 | 860.88
293.15 K, 89958 kPa, m1 = 2.833 | 1006.83
293.15 K, 89963 kPa, m1 = 1.462 | 932.84
293.15 K, 89989 kPa, m1 = 3.368 | 1033.84
293.15 K, 99824 kPa, m1 = 1.462 | 937.16
293.15 K, 99895 kPa, m1 = 3.368 | 1038.46
293.15 K, 99965 kPa, m1 = 0.9499 | 907.85
293.15 K, 99965 kPa, m1 = 2.833 | 1011.42
293.15 K, 99986 kPa, m1 = 0.2335 | 865.27
293.16 K, 1250 kPa, m1 = 3.368 | 983.6
293.16 K, 19905 kPa, m1 = 0.5972 | 842.47
293.16 K, 29938 kPa, m1 = 2.833 | 975.41
293.16 K, 39654 kPa, m1 = 3.368 | 1008.34
293.16 K, 69784 kPa, m1 = 0.2335 | 850.96
293.16 K, 99971 kPa, m1 = 0.5972 | 887.12
293.17 K, 1430 kPa, m1 = 2.272 | 926.33
293.17 K, 1504 kPa, m1 = 0.5972 | 829.09
293.17 K, 4902 kPa, m1 = 2.272 | 928.89
293.17 K, 4938 kPa, m1 = 0.5972 | 831.68
293.17 K, 10030 kPa, m1 = 2.272 | 932.58
293.17 K, 19789 kPa, m1 = 2.272 | 939.24
293.17 K, 29946 kPa, m1 = 2.272 | 945.75
293.17 K, 40161 kPa, m1 = 2.272 | 951.9
293.17 K, 49963 kPa, m1 = 2.272 | 957.45
293.17 K, 89964 kPa, m1 = 2.272 | 977.54
293.17 K, 99958 kPa, m1 = 2.272 | 982.14
293.18 K, 60025 kPa, m1 = 2.272 | 962.8
293.18 K, 69979 kPa, m1 = 2.272 | 967.88
293.19 K, 79838 kPa, m1 = 2.272 | 972.67
298.09 K, 1141 kPa, m1 = 0.5972 | 824.73
298.1 K, 99589 kPa, m1 = 2.272 | 978.52
298.11 K, 60144 kPa, m1 = 1.462 | 914.77
298.12 K, 39801 kPa, m1 = 1.462 | 902.81
298.12 K, 39933 kPa, m1 = 2.272 | 947.93
298.12 K, 49922 kPa, m1 = 1.462 | 908.93
298.12 K, 49993 kPa, m1 = 2.272 | 953.69
298.12 K, 60039 kPa, m1 = 2.272 | 959.15
298.12 K, 99737 kPa, m1 = 3.368 | 1034.98
298.13 K, 5308 kPa, m1 = 1.462 | 879.29
298.13 K, 59998 kPa, m1 = 0.5972 | 864.41
298.13 K, 69983 kPa, m1 = 2.272 | 964.25
298.13 K, 80661 kPa, m1 = 3.368 | 1025.85
298.13 K, 89925 kPa, m1 = 2.272 | 973.93
298.13 K, 89985 kPa, m1 = 3.368 | 1030.35
298.14 K, 5004 kPa, m1 = 2.833 | 954.84
298.14 K, 20004 kPa, m1 = 0.2335 | 816.39
298.14 K, 30021 kPa, m1 = 2.833 | 971.59
298.14 K, 70023 kPa, m1 = 2.833 | 993.85
298.14 K, 79924 kPa, m1 = 0.2335 | 853.09
298.15 K, 1023 kPa, m1 = 2.833 | 951.93
298.15 K, 1045 kPa, m1 = 0.9499 | 845.75
298.15 K, 1204 kPa, m1 = 0.2335 | 801.78
298.15 K, 5002 kPa, m1 = 0.2335 | 805.08
298.15 K, 5004 kPa, m1 = 0.9499 | 848.93
298.15 K, 5221 kPa, m1 = 0.5972 | 827.89
298.15 K, 10024 kPa, m1 = 0.9499 | 852.82
298.15 K, 10064 kPa, m1 = 0.2335 | 808.99
298.15 K, 19935 kPa, m1 = 2.833 | 965.15
298.15 K, 19956 kPa, m1 = 0.9499 | 860.13
298.15 K, 29124 kPa, m1 = 0.2335 | 822.86
298.15 K, 29945 kPa, m1 = 0.9499 | 866.97
298.15 K, 29950 kPa, m1 = 2.272 | 941.76
298.15 K, 29993 kPa, m1 = 0.5972 | 845.75
298.15 K, 29993 kPa, m1 = 1.462 | 896.53
298.15 K, 39784 kPa, m1 = 0.9499 | 873.28
298.15 K, 39830 kPa, m1 = 0.5972 | 852.23
298.15 K, 39845 kPa, m1 = 2.833 | 977.51
298.15 K, 49956 kPa, m1 = 0.2335 | 836.44
298.15 K, 49963 kPa, m1 = 0.5972 | 858.53
298.15 K, 50012 kPa, m1 = 0.9499 | 879.42
298.15 K, 59968 kPa, m1 = 2.833 | 988.68

From the NIST ThermoML archive (doi:10.1021/je1003065)
